# In patent US20160108098A1, “THERAPEUTIC PEPTIDES” (GLAXOSMITHKLINE INTELLECTUAL PROPERTY DEVELOPMENT LIMITED, priority 2013, published 2016):
# Where no end group is shown, it is not given here.
# How the values were obtained:
# [1] = cumulative food intake, lean mice (Model A), BioDaQ system; type: in vivo; settings: lean C57BL/6 mice, 1 mg/kg subcutaneously, cumulative food intake after 6 h, relative to vehicle controls
# Experimental: Cumulative food intake after 6 h was determined for the PYY analogs in either lean (Model A) or diet-induced obese (DIO) (Model B) C57BL/6 mice in a BioDaQ system for continuous monitoring of food intake (Research Diets Inc., New Brunswick, N.J.). […] Mice were placed singly into the BioDaQ cages and acclimatized for a minimum of 6 days and were allowed ad libitum access to food and water. Approximately 1 hour prior to lights-out, animals were dosed subcutaneously with either vehicle (20 mM Acetate buffer, pH 4.9 or 20% DMSO in water) or analogs dissolved in vehicle (1 mg/kg) (8 animals per group). Once all animals have been dosed, feeder gates were opened providing ad-libitum access to food. Continuous food intake was monitored and collected for 15 hours. […] P-values<0.05 were considered to indicate a significant difference between treatment groups.
# [2] = target: T1, human Neuropeptide Y receptor type 2 (Homo sapiens, UniProt P49146); assay: melanophore assay, potency at the human Neuropeptide Y receptor type 2; type: cell-based; settings: read-out: hNPY Y2 pEC50 (converted)
# T1 construct: expressed in transfected cells; host or cells: melanophores; own knowledge: in the cited Jayawickreme protocol these are Xenopus laevis melanophores transfected with the receptor
# T1 sequence (P49146 1-381): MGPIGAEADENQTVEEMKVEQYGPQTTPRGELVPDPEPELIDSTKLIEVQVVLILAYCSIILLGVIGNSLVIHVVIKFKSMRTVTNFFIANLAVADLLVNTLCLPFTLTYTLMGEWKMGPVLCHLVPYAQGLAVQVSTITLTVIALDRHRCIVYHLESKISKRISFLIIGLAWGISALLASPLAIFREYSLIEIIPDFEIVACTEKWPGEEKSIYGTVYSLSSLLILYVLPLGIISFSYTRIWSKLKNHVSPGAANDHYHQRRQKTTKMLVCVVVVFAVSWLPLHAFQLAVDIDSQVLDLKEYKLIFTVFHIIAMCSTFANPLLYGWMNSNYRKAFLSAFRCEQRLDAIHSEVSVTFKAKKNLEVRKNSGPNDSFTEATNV
EC50 [2],Molecule,"% change in food intake vs vehicle, model A [1]"
–,CC(C)C[C@H](NC(=O)[C@H](CC(=O)O)NC(=O)[C@H](C)NC(=O)[C@H](Cc1ccc(O)cc1)NC(=O)[C@H](Cc1ccc(O)cc1)NC(=O)[C@H](CCCNC(=N)N)NC(=O)[C@H](CC(N)=O)NC(=O)[C@H](Cc1c[nH]c2ccccc12)NC(=O)[C@H](CCC(=O)O)NC(=O)[C@H](CCC(=O)O)NC(=O)[C@@H]1CCCN1C(=O)[C@H](CO)NC(=O)[C@H](C)NC(=O)[C@H](CC(=O)O)NC(=O)[C@H](CCCCN)NC(=O)CNC(=O)[C@@H]1CCCN1C(=O)[C@H](C)NC(=O)[C@H](CCC(=O)O)NC(=O)[C@@H]1CCCN1C(=O)[C@H](CCCCN)NC(=O)[C@@H]1CCCN1)C(=O)N[C@@H](CCCNC(=N)N)C(=O)N[C@@H](CCCCN)C(=O)N[C@@H](Cc1ccc(O)cc1)C(=O)N[C@@H](CC(C)C)C(=O)N[C@@H](CC(N)=O)C(=O)N[C@@H](Cc1c[nH]c2ccccc12)C(=O)N[C@@H](CC(C)C)C(=O)N[C@H](C(=O)N[C@@H](CCCNC(=N)N)C(=O)N[C@@H](CCC(N)=O)C(=O)N[C@@H](CCCNC(=N)N)C(=O)N[C@@H](Cc1ccc(O)cc1)C(N)=O)[C@@H](C)O [Example 4],−83%
0.158 nM,CC(C)C[C@H](NC(=O)[C@H](CO)NC(=O)[C@H](C)NC(=O)[C@H](Cc1ccc(O)cc1)NC(=O)[C@H](Cc1ccc(O)cc1)NC(=O)[C@H](CCCNC(=N)N)NC(=O)[C@H](CC(N)=O)NC(=O)[C@H](CC(C)C)NC(=O)[C@H](CCC(=O)O)NC(=O)[C@H](CCC(=O)O)NC(=O)[C@@H]1CCCN1C(=O)[C@H](CO)NC(=O)[C@H](C)NC(=O)[C@H](CC(=O)O)NC(=O)[C@H](CCCCN)NC(=O)CNC(=O)[C@@H]1CCCN1C(=O)[C@H](C)NC(=O)[C@H](CCC(=O)O)NC(=O)[C@@H]1CCCN1C(=O)[C@H](CCCCN)NC(=O)[C@@H]1CCCN1)C(=O)N[C@@H](CCCNC(=N)N)C(=O)N[C@@H](CCCCN)C(=O)N[C@@H](Cc1ccc(O)cc1)C(=O)N[C@@H](CC(C)C)C(=O)N[C@@H](CC(N)=O)C(=O)N[C@@H](Cc1c[nH]c2ccccc12)C(=O)N[C@@H](CC(C)C)C(=O)N[C@H](C(=O)N[C@@H](CCCNC(=N)N)C(=O)N[C@@H](CCC(N)=O)C(=O)N[C@@H](CCCNC(=N)N)C(=O)N[C@@H](Cc1ccc(O)cc1)C(N)=O)[C@@H](C)O [Example 2],−50%
–,PEPEHPGCDASPEDQNKYHASLRKYLNWVTRQRY-NH2 [Peptide 10],-21%
2 nM,H-PKPEAPLSKQLEEEAVRYYASLRHYLNLVTRQRY-NH2 [Peptide 21],-2%
2.51 nM,H-IKPEAPLSKQLEEEAVRYYASLRHYLNLVTRQRY-NH2 [Peptide 2],-12%
6.31 nM,PKPEAPGCDASPEEWNRYYASLRKYLNWVTRQHY-NH2 [Peptide 14],24%
0.158 nM,CC(C)C[C@H](NC(=O)[C@H](CO)NC(=O)[C@H](C)NC(=O)[C@H](Cc1ccc(O)cc1)NC(=O)[C@H](Cc1ccc(O)cc1)NC(=O)[C@H](CCCNC(=N)N)NC(=O)[C@H](CC(N)=O)NC(=O)[C@H](CC(C)C)NC(=O)[C@H](CCC(=O)O)NC(=O)[C@H](CCC(=O)O)NC(=O)[C@@H]1CCCN1C(=O)[C@H](CO)NC(=O)[C@H](C)NC(=O)[C@H](CC(=O)O)NC(=O)[C@H](CCCCN)NC(=O)CNC(=O)[C@@H]1CCCN1C(=O)[C@H](C)NC(=O)[C@H](CCC(=O)O)NC(=O)[C@@H]1CCCN1C(=O)[C@H](CCCCN)NC(=O)[C@@H]1CCCN1)C(=O)N[C@@H](CCCNC(=N)N)C(=O)N[C@@H](CCCCN)C(=O)N[C@@H](Cc1ccc(O)cc1)C(=O)N[C@@H](CC(C)C)C(=O)N[C@@H](CC(N)=O)C(=O)N[C@@H](Cc1c[nH]c2ccccc12)C(=O)N[C@H](C(=O)N[C@H](C(=O)N[C@@H](CCCNC(=N)N)C(=O)N[C@@H](CCC(N)=O)C(=O)N[C@@H](CCCNC(=N)N)C(=O)N[C@@H](Cc1ccc(O)cc1)C(N)=O)[C@@H](C)O)C(C)C [Example 31],−59%
0.631 nM,H-PKPEAPGEDASPKEWNRYYASLRKYLNWVTRQRY-NH2 [Peptide 3],-30%
0.501 nM,CC[C@H](C)[C@H](N)C(=O)N[C@@H](CCCCN)C(=O)N1CCC[C@H]1C(=O)N1CCC[C@H]1C(=O)N[C@@H](Cc1ccc(O)cc1)C(=O)N1CCC[C@H]1C(=O)NCC(=O)N[C@@H](CS)C(=O)N[C@@H](CC(=O)O)C(=O)N[C@@H](C)C(=O)N[C@@H](CO)C(=O)N1CCC[C@H]1C(=O)N[C@@H](CCC(=O)O)C(=O)N[C@@H](CCC(=O)O)C(=O)N[C@@H](CCC(N)=O)C(=O)N[C@@H](CC(N)=O)C(=O)N[C@@H](CCCCN)C(=O)N[C@@H](Cc1ccc(O)cc1)C(=O)N[C@@H](Cc1ccc(O)cc1)C(=O)N[C@@H](C)C(=O)N[C@@H](CO)C(=O)N[C@@H](CC(C)C)C(=O)N[C@@H](CCCNC(=N)N)C(=O)N[C@@H](C)C(=O)N[C@@H](Cc1ccc(O)cc1)C(=O)N[C@@H](Cc1c[nH]c2ccccc12)C(=O)N[C@@H](CC(N)=O)C(=O)N[C@@H](CC(C)C)C(=O)N[C@H](C(=O)N[C@H](C(=O)N[C@@H](CCCNC(=N)N)C(=O)N[C@@H](CCC(N)=O)C(=O)N[C@@H](CCCNC(=N)N)C(=O)N[C@@H](Cc1ccc(O)cc1)C(N)=O)[C@@H](C)O)C(C)C [Peptide 8],-19%
–,H-PQPESPEGNASPEDWACYHAAVRHYVNLITRQRY-NH2 [Peptide 18],-17%
0.02 nM,CC(C)C[C@H](NC(=O)[C@H](CC(=O)O)NC(=O)[C@H](C)NC(=O)[C@H](Cc1ccc(O)cc1)NC(=O)[C@H](Cc1ccc(O)cc1)NC(=O)[C@H](CCCNC(=N)N)NC(=O)[C@H](CC(N)=O)NC(=O)[C@H](Cc1c[nH]c2ccccc12)NC(=O)[C@H](CCC(=O)O)NC(=O)[C@H](CCC(=O)O)NC(=O)[C@@H]1CCCN1C(=O)[C@H](CO)NC(=O)[C@H](C)NC(=O)[C@H](CC(=O)O)NC(=O)[C@H](CCCCN)NC(=O)CNC(=O)[C@@H]1CCCN1C(=O)[C@H](C)NC(=O)[C@H](CCC(=O)O)NC(=O)[C@@H]1CCCN1C(=O)[C@H](CCCCN)NC(=O)[C@@H]1CCCN1)C(=O)N[C@@H](CCCNC(=N)N)C(=O)N[C@@H](CCCCN)C(=O)N[C@@H](Cc1ccc(O)cc1)C(=O)N[C@@H](CC(C)C)C(=O)N[C@@H](CC(N)=O)C(=O)N[C@@H](Cc1c[nH]c2ccccc12)C(=O)N[C@H](C(=O)N[C@H](C(=O)N[C@@H](CCCNC(=N)N)C(=O)N[C@@H](CCC(N)=O)C(=O)N[C@@H](CCCNC(=N)N)C(=O)N[C@@H](Cc1ccc(O)cc1)C(N)=O)[C@@H](C)O)C(C)C [Example 8],−74%
12.6 nM,H-PKPEAPGCDASPEEWNRYYASLRKYLNWVTRQNY-NH2 [Peptide 1],5%
1.26 nM,PKPVAPGCDASPAELNRQYSDLRNYWNLVTRQRY-NH2 [Peptide 15],-17%
0.0794 nM,CC(C)C[C@H](NC(=O)[C@H](CO)NC(=O)[C@H](C)NC(=O)[C@H](Cc1ccc(O)cc1)NC(=O)[C@H](Cc1ccc(O)cc1)NC(=O)[C@H](CCCNC(=N)N)NC(=O)[C@H](CC(N)=O)NC(=O)[C@H](Cc1c[nH]c2ccccc12)NC(=O)[C@H](CCC(=O)O)NC(=O)[C@H](CCC(=O)O)NC(=O)[C@@H]1CCCN1C(=O)[C@H](CO)NC(=O)[C@H](C)NC(=O)[C@H](CC(=O)O)NC(=O)[C@H](CCCCN)NC(=O)CNC(=O)[C@@H]1CCCN1C(=O)[C@H](C)NC(=O)[C@H](CCC(=O)O)NC(=O)[C@@H]1CCCN1C(=O)[C@H](CCCCN)NC(=O)[C@@H]1CCCN1)C(=O)N[C@@H](CCCNC(=N)N)C(=O)N[C@@H](CCCCN)C(=O)N[C@@H](Cc1ccc(O)cc1)C(=O)N[C@@H](CC(C)C)C(=O)N[C@@H](CC(N)=O)C(=O)N[C@@H](Cc1c[nH]c2ccccc12)C(=O)N[C@@H](CC(C)C)C(=O)N[C@H](C(=O)N[C@@H](CCCNC(=N)N)C(=O)N[C@@H](CCC(N)=O)C(=O)N[C@@H](CCCNC(=N)N)C(=O)N[C@@H](Cc1ccc(O)cc1)C(N)=O)[C@@H](C)O [Example 6],−88%
0.0398 nM,CC(C)C[C@H](NC(=O)[C@H](CO)NC(=O)[C@H](C)NC(=O)[C@H](Cc1ccc(O)cc1)NC(=O)[C@H](Cc1ccc(O)cc1)NC(=O)[C@H](CCCNC(=N)N)NC(=O)[C@H](CC(N)=O)NC(=O)[C@H](Cc1c[nH]c2ccccc12)NC(=O)[C@H](CCC(=O)O)NC(=O)[C@H](CCC(=O)O)NC(=O)[C@@H]1CCCN1C(=O)[C@H](CO)NC(=O)[C@H](C)NC(=O)[C@H](CC(=O)O)NC(=O)[C@H](CCCCN)NC(=O)CNC(=O)[C@@H]1CCCN1C(=O)[C@H](C)NC(=O)[C@H](CCC(=O)O)NC(=O)[C@@H]1CCCN1C(=O)[C@H](CCCCN)NC(=O)[C@@H]1CCCN1)C(=O)N[C@@H](CCCNC(=N)N)C(=O)N[C@@H](CCCCN)C(=O)N[C@@H](Cc1ccc(O)cc1)C(=O)N[C@@H](CC(C)C)C(=O)N[C@@H](CC(N)=O)C(=O)N[C@@H](Cc1c[nH]c2ccccc12)C(=O)N[C@H](C(=O)N[C@H](C(=O)N[C@@H](CCCNC(=N)N)C(=O)N[C@@H](CCC(N)=O)C(=O)N[C@@H](CCCNC(=N)N)C(=O)N[C@@H](Cc1ccc(O)cc1)C(N)=O)[C@@H](C)O)C(C)C [Example 10],−88%
